Measured values: patent publication US20250059182A1, “SOS1 INHIBITORS” (Mirati Therapeutics, Inc., priority 2021, published 2025)
Where two headings read alike, the source gives them in different places.

Experiments:
[1] = target: T1, recombinant human SOS1 polypeptide (amino acids 560-1049) (Homo sapiens, UniProt Q07889); experiment: HTRF displacement assay: inhibition of labeled tracer binding to SOS1; settings: Table A, Morrison equation for competitive binding
T1 construct: corresponding to amino acids 560-1049, expressed in E. Coli; made in house; host or cells: E. coli
T1 sequence (Q07889 560-1049): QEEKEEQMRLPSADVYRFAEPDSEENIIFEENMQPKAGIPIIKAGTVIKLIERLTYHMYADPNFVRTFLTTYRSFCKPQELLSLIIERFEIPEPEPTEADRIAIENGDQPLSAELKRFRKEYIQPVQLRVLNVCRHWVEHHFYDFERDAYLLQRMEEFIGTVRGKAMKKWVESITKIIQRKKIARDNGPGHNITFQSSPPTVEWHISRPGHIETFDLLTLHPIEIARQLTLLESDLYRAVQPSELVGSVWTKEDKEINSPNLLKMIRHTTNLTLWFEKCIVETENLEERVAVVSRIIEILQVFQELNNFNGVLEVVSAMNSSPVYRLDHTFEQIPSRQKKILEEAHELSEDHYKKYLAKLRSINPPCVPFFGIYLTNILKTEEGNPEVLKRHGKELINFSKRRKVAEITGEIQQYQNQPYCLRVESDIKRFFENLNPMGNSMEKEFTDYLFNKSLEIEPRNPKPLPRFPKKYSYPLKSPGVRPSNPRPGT
Description: The ability of a compound of Formula (I) to bind to SOS1 was measured using a HTRF displacement assay. […] After a 1-hour incubation at room temperature, the HTRF signal was measured using Clairostar plate reader (BMG Labtech) according to the manufacturer's instructions. Excitation filter EX-TR was used, and emission 1 was detected at 650-610 nm and emission 2 detected at 620-610 nm. The HTRF ratio was calculated using the formula: [emission 1/emission 2]*10000.
Background signals were calculated from well with a 10 μM inhibitor, known to inhibit 100% at that concentration. The background subtracted signals were converted to % binding relative to DMSO controls. Data were analyzed using XLFIT software (IDBS) using a Morrison equation for competitive binding and Ki's were generated compound of Formula (I).

pERK in MKN1 cells = experiment: pERK inhibition, In-Cell Western (LI-COR Odyssey), MKN1 cells; assay type: cell-based; settings: MKN1 or H358 cells (table does not say which), 0.5-1 hour incubation, read-out: IC50 (nM), pERK inhibition
How it was run: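 MKN1 cells were exposed for about 0.5–1 h at 37 °C to nine 3-fold dilutions starting at 10 µM. Cells were then fixed in formaldehyde, permeabilised with methanol, and immunostained for pERK and GAPDH with near-infrared secondary antibodies. GAPDH-normalised pERK signal relative to vehicle gave % inhibition, from which IC50 was fitted.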

Structure (SMILES) | Ki [1] [nM] | IC50 (pERK in MKN1 cells; Homo sapiens, MKN-1, Table B) [nM] | IC50 (pERK in MKN1 cells; Table B) [nM]
Cc1nnc(N[C@H](C)c2cccc(C(F)(F)F)c2F)c2cc(N3CCOCC3)c(F)cc12 [Example 4-6, (R)-6-fluoro-N-(1-(2-fluoro-3-(trifluoromethyl)phenyl)ethyl)-4-methyl-7-morpholinophthalazin-1-amine] | 12.3 | 176 | 
Cc1nnc(N[C@H](C)c2cccc(C(F)(F)F)c2F)c2cc(N3CCN(C)CC3)c(F)cc12 [Example 4-7, (R)-6-fluoro-N-(1-(2-fluoro-3-(trifluoromethyl)phenyl)ethyl)-4-methyl-7-(4-methylpiperazin-1-yl)phthalazin-1-amine] | 1.06 | 110 | 
Cc1c(C#N)cccc1[C@@H](C)Nc1nnc(C)c2cc(F)c(N3CC4(CN(C)C4)C3)cc12 [Example 4-9, (R)-3-(1-((6-fluoro-4-methyl-7-(6-methyl-2,6-diazaspiro[3.3]heptan-2-yl)phthalazin-1-yl)amino)ethyl)-2-methylbenzonitrile] | 0.343 | 24.1 | 
Cc1nnc(N[C@H](C)c2cccc(C(F)(F)F)c2F)c2cc(N3CC4(COC4)C3)c(F)cc12 [Example 4-10, (R)-6-fluoro-N-(1-(2-fluoro-3-(trifluoromethyl)phenyl)ethyl)-4-methyl-7-(2-oxa-6-azaspiro[3.3]heptan-6-yl)phthalazin-1-amine] | 2.4 | 141 | 
Cc1c(C#N)cccc1[C@@H](C)Nc1nnc(C)c2cc(F)c(N3CCN4CCOC[C@@H]4C3)cc12 [Example 4-11, 3-((R)-1-((6-fluoro-7-((S)-hexahydropyrazino[2,1-c][1,4]oxazin-8(1H)-yl)-4-methylphthalazin-1-yl)amino)ethyl)-2-methylbenzonitrile] | 5.77 | 162 | 
Cc1c(C#N)cccc1[C@@H](C)Nc1nnc(C)c2cc(F)c(N3C[C@@H]4C[C@H]3CO4)cc12 [Example 4-13, 3-((R)-1-((7-((1S,4S)-2-oxa-5-azabicyclo[2.2.1]heptan-5-yl)-6-fluoro-4-methylphthalazin-1-yl)amino)ethyl)-2-methylbenzonitrile] | 16.1 | 165 | 
Cc1c(C#N)cccc1[C@@H](C)Nc1nnc(C)c2cc(F)c(N3C[C@@H]4C[C@H]3CN4C)cc12 [Example 4-14, 3-((R)-1-((6-fluoro-4-methyl-7-((1S,4S)-5-methyl-2,5-diazabicyclo[2.2.1]heptan-2-yl)phthalazin-1-yl)amino)ethyl)-2-methylbenzonitrile] | 1.16 |  | 41.6
Cc1c(C#N)cccc1[C@@H](C)Nc1nnc(C)c2cc(F)c(N3C[C@H]4C[C@@H]3CO4)cc12 [Example 4-15, 3-((R)-1-((7-((1R,4R)-2-oxa-5-azabicyclo[2.2.1]heptan-5-yl)-6-fluoro-4-methylphthalazin-1-yl)amino)ethyl)-2-methylbenzonitrile] | 4.66 | 37.8 | 
Cc1nnc(N[C@H](C)c2cccc(C(C)(F)F)c2F)c2cc(N3CCN(C)CC3)c(F)cc12 [Example 4-16, (R)-N-(1-(3-(1,1-difluoroethyl)-2-fluorophenyl)ethyl)-6-fluoro-4-methyl-7-(4-methylpiperazin-1-yl)phthalazin-1-amine] | 0.742 | 52 | 
COCCN(C)c1cc2c(N[C@H](C)c3cccc(C#N)c3C)nnc(C)c2cc1F [Example 4-17, (R)-3-(1-((6-fluoro-7-((2-methoxyethyl)(methyl)amino)-4-methylphthalazin-1-yl)amino)ethyl)-2-methylbenzonitrile] | 9.16 | 814 | 
Cc1c(C#N)cccc1[C@@H](C)Nc1nnc(C)c2cc(F)c(N3CCN(C)C(C)(C)C3)cc12 [Example 4-18, (R)-3-(1-((6-fluoro-4-methyl-7-(3,3,4-trimethylpiperazin-1-yl)phthalazin-1-yl)amino)ethyl)-2-methylbenzonitrile] | 1.42 | 118 | 
Cc1c(C#N)cccc1[C@@H](C)Nc1nnc(C)c2cc(F)c(N3CCS(=O)(=O)CC3)cc12 [Example 4-19, (R)-3-(1-((7-(1,1-dioxidothiomorpholino)-6-fluoro-4-methylphthalazin-1-yl)amino)ethyl)-2-methylbenzonitrile] | 3.53 | 551 | 
Cc1c(C#N)cccc1[C@@H](C)Nc1nnc(C)c2cc(F)c(N3C[C@@H]4C[C@H]3CN4C)cc12 [Example 4-21, 3-((R)-1-((6-fluoro-4-methyl-7-((1S,4S)-5-methyl-2,5-diazabicyclo[2.2.1]heptan-2-yl)phthalazin-1-yl)amino)ethyl)-2-methylbenzonitrile] | 2 |  | 16
Cc1c([C@@H](C)Nc2nnc(C)c3cc(F)c(N4CCOCC4)cc23)cc(N)nc1C(F)(F)F [Example 4-22, (R)-N-(1-(6-amino-3-methyl-2-(trifluoromethyl)pyridin-4-yl)ethyl)-6-fluoro-4-methyl-7-morpholinophthalazin-1-amine] | 22 | 49 | 
Cc1nnc(N[C@H](C)c2cccc(C(F)(F)F)c2F)c2cc(N(C)C3CCN(C)CC3)c(F)cc12 [Example 4-23, (R)-6-fluoro-N^1-(1-(2-fluoro-3-(trifluoromethyl)phenyl)ethyl)-N^7,4-dimethyl-N^7-(1-methylpiperidin-4-yl)phthalazine-1,7-diamine] | 1.2 | 25 | 
Cc1c(C#N)cccc1[C@@H](C)Nc1nnc(N2CC[C@@H](N)C2)c2cnc(N3C[C@H]4C[C@@H]3CO4)cc12 [Example 5-1, 3-((R)-1-((4-((R)-3-aminopyrrolidin-1-yl)-7-((1R, 4R)-2-oxa-5-azabicyclo[2.2.1]heptan-5-yl)pyrido[3,4-d]pyridazin-1-yl)amino)ethyl)-2-methylbenzonitrile] | 0.505 | 1320 | 
Cc1c(C#N)cccc1[C@@H](C)Nc1nnc(N2CC[C@@H](N(C)C)C2)c2cnc(N3C[C@H]4C[C@@H]3CO4)cc12 [Example 5-2, 3-((R)-1-((7-((1R, 4R)-2-oxa-5-azabicyclo[2.2.1]heptan-5-yl)-4-((R)-3-(dimethylamino)pyrrolidin-1-yl)pyrido[3,4-d]pyridazin-1-yl)amino)ethyl)-2-methylbenzonitrile] | 0.973 | 115 | 
Cc1c(C#N)cccc1[C@@H](C)Nc1nnc(CN(C)C)c2cnc(N3CC4(COC4)C3)cc12 [Example 6-1, (R)-3-(1-((4-((dimethylamino)methyl)-7-(2-oxa-6-azaspiro[3.3]heptan-6-yl)pyrido[3,4-d]pyridazin-1-yl)amino)ethyl)-2-methylbenzonitrile] | 18.3 | 171 | 
COc1cc2c(C)nnc(N[C@H](C)c3cccc(C#N)c3C)c2cc1OC [Example 6-7, (R)-3-(1-((6,7-dimethoxy-4-methylphthalazin-1-yl)amino)ethyl)-2-methylbenzonitrile] | 14.5 | 177 | 
Cc1c(C#N)cccc1[C@@H](C)Nc1nnc(C)c2cnc(C3CCN(C)CC3)cc12 [Example 6-14, (R)-2-methyl-3-(1-((4-methyl-7-(1-methylpiperidin-4-yl)pyrido[3,4-d]pyridazin-1-yl)amino)ethyl)benzonitrile] | 8.89 | 468 | 
Cc1nnc(N[C@H](C)c2cccc(C(F)(F)F)c2F)c2cc(N3CCN(C)CC3)c(C#N)cc12 [Example 6-17, (R)-1-((1-(2-fluoro-3-(trifluoromethyl)phenyl)ethyl)amino)-4-methyl-7-(4-methylpiperazin-1-yl)phthalazine-6-carbonitrile] | 2.29 | 139 | 
